These molecules were tested against hMRGX2 (CHO-K1 cells overexpressing MRGX2) (Homo sapiens (Human), UniProt Q96LB1) (assay: In vitro inhibition (EC50) of intracellular calcium flux, FLIPR Tetra, substance P stimulation). Conditions: stimulated with MRGX2 ligand substance P, FLIPR Calcium 5, read-out: hMRGX2 Cellular Potency (pEC50) (converted).
Sequence of hMRGX2 (CHO-K1 cells overexpressing MRGX2) (Q96LB1 whole entry): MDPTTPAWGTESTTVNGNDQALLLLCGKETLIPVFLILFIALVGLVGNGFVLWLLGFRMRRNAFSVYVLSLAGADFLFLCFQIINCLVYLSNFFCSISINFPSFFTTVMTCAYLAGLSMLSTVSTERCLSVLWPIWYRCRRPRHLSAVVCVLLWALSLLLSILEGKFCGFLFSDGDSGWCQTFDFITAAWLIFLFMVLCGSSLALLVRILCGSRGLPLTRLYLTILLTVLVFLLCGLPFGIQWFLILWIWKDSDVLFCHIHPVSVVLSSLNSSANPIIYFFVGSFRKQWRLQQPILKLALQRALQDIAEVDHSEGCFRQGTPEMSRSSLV
Assay type: cell-based
Method in brief: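 CHO-K1 cells overexpressing human MRGX2, loaded with Calcium 5 dye for 30 min at 37 °C, then given compound (11-point, top 10 μM).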
With `O=S1(=O)N=C(Nc2ccccc2)Nc2c(C3CC3)cccc21` [Example 121, 5-cyclopropyl-3-(phenylamino)-4H-benzo[e][1,2,4]thiadiazine 1,1-dioxide] the EC50 was 431 nM. `COc1cccnc1CNC1=NS(=O)(=O)c2cccc(-c3cccc(F)c3Cl)c2N1` [Example 122, 5-(2-chloro-3-fluorophenyl)-3-(((3-methoxypyridin-2-yl)methyl)amino)-4H-benzo[e][1,2,4]thiadiazine 1,1-dioxide] gave an EC50 of 30.3 nM. Work on `O=S1(=O)N=C(NCC2CCCO2)Nc2c(-c3cccc(F)c3Cl)cccc21` (centres unmarked) [Example 123, 5-(2-chloro-3-fluorophenyl)-3-(((tetrahydrofuran-2-yl)methyl)amino)-4H-benzo[e][1,2,4]thiadiazine 1,1-dioxide] yielded an EC50 of 60.8 nM. With `COCCNC1=NS(=O)(=O)c2cccc(-c3ccccc3C(F)(F)F)c2N1` [Example 124, 3-((2-methoxyethyl)amino)-5-(2-(trifluoromethyl)phenyl)-4H-benzo[e][1,2,4]thiadiazine 1,1-dioxide] the EC50 was 64.4 nM. `N#Cc1c(F)cccc1-c1cccc2c1NC(NCc1nccs1)=NS2(=O)=O` [Example 126, 2-(1,1-dioxido-3-((thiazol-2-ylmethyl)amino)-4H-benzo[e][1,2,4]thiadiazin-5-yl)-6-fluorobenzonitrile] was tested, and the EC50 was 70 nM. `COC(C)CNC1=NS(=O)(=O)c2cccc(-c3cc(F)cc(F)c3F)c2N1` (centres unmarked) [Example 127, 3-((2-methoxypropyl)amino)-5-(2,3,5-trifluorophenyl)-4H-benzo[e][1,2,4]thiadiazine 1,1-dioxide] showed an EC50 of 87.1 nM. For `O=S1(=O)N=C(NCC2CCC2)Nc2c(-c3cc(F)cc(F)c3F)cccc21` [Example 130, 3-((cyclobutylmethyl)amino)-5-(2,3,5-trifluorophenyl)-4H-benzo[e][1,2,4]thiadiazine 1,1-dioxide], the EC50 was 87.9 nM. Molecule `O=S1(=O)N=C(NCc2ccccn2)Nc2c(-c3cc(F)cc(F)c3F)cccc21` [Example 131, 3-((pyridin-2-ylmethyl)amino)-5-(2,3,5-trifluorophenyl)-4H-benzo[e][1,2,4]thiadiazine 1,1-dioxide] has an EC50 of 88.5 nM. With `COCCNC1=NS(=O)(=O)c2cccc(-c3cccc(C(F)(F)F)c3Cl)c2N1` [Example 132, 5-(2-chloro-3-(trifluoromethyl)phenyl)-3-((2-methoxyethyl)amino)-4H-benzo[e][1,2,4]thiadiazine 1,1-dioxide] the EC50 was 281 nM. With `COCCNC1=NS(=O)(=O)c2cccc(-c3ccc(F)cc3Cl)c2N1` [Example 133, 5-(2-chloro-4-fluorophenyl)-3-((2-methoxyethyl)amino)-4H-benzo[e][1,2,4]thiadiazine 1,1-dioxide] the EC50 was 296 nM. `COCCNC1=NS(=O)(=O)c2cccc(-c3cc(C(F)(F)F)ccc3Cl)c2N1` [Example 134, 5-(2-chloro-5-(trifluoromethyl)phenyl)-3-((2-methoxyethyl)amino)-4H-benzo[e][1,2,4]thiadiazine 1,1-dioxide] gave an EC50 of 723 nM. Work on `COCCNC1=NS(=O)(=O)c2cccc(-c3cccc(Cl)c3F)c2N1` [Example 135, 5-(3-chloro-2-fluorophenyl)-3-((2-methoxyethyl)amino)-4H-benzo[e][1,2,4]thiadiazine 1,1-dioxide] yielded an EC50 of 841 nM. `CNC1=NS(=O)(=O)c2ccc(F)c(-c3ccccc3Cl)c2N1` [Example 138, 5-(2-chlorophenyl)-6-fluoro-3-(methylamino)-4H-benzo[e][1,2,4]thiadiazine 1,1-dioxide] gave an EC50 of 190 nM. `O=S1(=O)N=C(NCc2ccccn2)Nc2c(-c3cc(F)ccc3F)cccc21` [Example 139, 5-(2,5-difluorophenyl)-3-((pyridin-2-ylmethyl)amino)-4H-benzo[e][1,2,4]thiadiazine 1,1-dioxide] gave an EC50 of 246 nM. With `O=S1(=O)N=C(NCC2CC2)Nc2c(-c3cc(F)ccc3F)cccc21` [Example 140, 3-((cyclopropylmethyl)amino)-5-(2,5-difluorophenyl)-4H-benzo[e][1,2,4]thiadiazine 1,1-dioxide] the EC50 was 692 nM. `COCCNC1=NS(=O)(=O)c2cccc(-c3cc(F)ccc3F)c2N1` [Example 141, 5-(2,5-difluorophenyl)-3-((2-methoxyethyl)amino)-4H-benzo[e][1,2,4]thiadiazine 1,1-dioxide] showed an EC50 of 366 nM. Work on `COC(C)CNC1=NS(=O)(=O)c2cccc(-c3cc(F)ccc3F)c2N1` (centres unmarked) [Example 142, 5-(2,5-difluorophenyl)-3-((2-methoxypropyl)amino)-4H-benzo[e][1,2,4]thiadiazine 1,1-dioxide] yielded an EC50 of 244 nM. `CCNC1=NS(=O)(=O)c2cccc(-c3cc(F)ccc3F)c2N1` [Example 143, 5-(2,5-difluorophenyl)-3-(ethylamino)-4H-benzo[e][1,2,4]thiadiazine 1,1-dioxide] showed an EC50 of 443 nM. With `COCCNC1=NS(=O)(=O)c2cccc(-c3cc(F)ccc3Cl)c2N1` [Example 144, 5-(2-chloro-5-fluorophenyl)-3-((2-methoxyethyl)amino)-4H-benzo[e][1,2,4]thiadiazine 1,1-dioxide] the EC50 was 216 nM. Molecule `COC(C)CNC1=NS(=O)(=O)c2cccc(-c3ccccc3C#N)c2N1` (centres unmarked) [Example 145, 2-(3-((2-methoxypropyl)amino)-1,1-dioxido-4H-benzo[e][1,2,4]thiadiazin-5-yl)benzonitrile] has an EC50 of 141 nM. With `N#Cc1ccccc1-c1cccc2c1NC(NCC1CCC1)=NS2(=O)=O` [Example 146, 2-(3-((cyclobutylmethyl)amino)-1,1-dioxido-4H-benzo[e][1,2,4]thiadiazin-5-yl)benzonitrile] the EC50 was 162 nM. With `O=S1(=O)N=C(NCc2cccc(F)n2)Nc2c(-c3cccc(F)c3Cl)cccc21` [Example 148, 5-(2-chloro-3-fluorophenyl)-3-(((6-fluoropyridin-2-yl)methyl)amino)-4H-benzo[e][1,2,4]thiadiazine 1,1-dioxide] the EC50 was 17 nM. `N#Cc1c(F)cccc1-c1cccc2c1NC(NCCF)=NS2(=O)=O` [Example 149, 2-fluoro-6-(3-((2-fluoroethyl)amino)-1,1-dioxido-4H-benzo[e][1,2,4]thiadiazin-5-yl)benzonitrile] gave an EC50 of 320 nM. Work on `COC(C)CNC1=NS(=O)(=O)c2cccc(-c3cccc(F)c3C#N)c2N1` (centres unmarked) [Example 150, 2-fluoro-6-(3-((2-methoxypropyl)amino)-1,1-dioxido-4H-benzo[e][1,2,4]thiadiazin-5-yl)benzonitrile] yielded an EC50 of 416 nM. Molecule `COCCCNC1=NS(=O)(=O)c2cccc(-c3cccc(F)c3Cl)c2N1` [Example 151, 5-(2-chloro-3-fluorophenyl)-3-((3-methoxypropyl)amino)-4H-benzo[e][1,2,4]thiadiazine 1,1-dioxide] has an EC50 of 562 nM. In the case of `O=S1(=O)N=C(NCCCF)Nc2c(-c3cccc(F)c3Cl)cccc21` [Example 152, 5-(2-chloro-3-fluorophenyl)-3-((3-fluoropropyl)amino)-4H-benzo[e][1,2,4]thiadiazine 1,1-dioxide], the EC50 is reported as 223 nM. `CO[C@@H](C)CCNC1=NS(=O)(=O)c2cccc(-c3cccc(F)c3Cl)c2N1` [Example 155, (S)-5-(2-chloro-3-fluorophenyl)-3-((3-methoxybutyl)amino)-4H-benzo[e][1,2,4]thiadiazine 1,1-dioxide] showed an EC50 of 35.2 nM. With `COCCNC1=NS(=O)(=O)c2cccc(-c3cccc(F)c3C3CC3)c2N1` [Example 156, 5-(2-cyclopropyl-3-fluorophenyl)-3-((2-methoxyethyl)amino)-4H-benzo[e][1,2,4]thiadiazine 1,1-dioxide] the EC50 was 47.5 nM. `CNC1=NS(=O)(=O)c2cccc(-c3cccc(F)c3C3CC3)c2N1` [Example 157, 5-(2-cyclopropyl-3-fluorophenyl)-3-(methylamino)-4H-benzo[e][1,2,4]thiadiazine 1,1-dioxide] was tested, and the EC50 was 56.2 nM. In the case of `CC(C)NC1=NS(=O)(=O)c2cccc(-c3cccc(F)c3Cl)c2N1` [Example 158, 5-(2-chloro-3-fluorophenyl)-3-(isopropylamino)-4H-benzo[e][1,2,4]thiadiazine 1,1-dioxide], the EC50 is reported as 229 nM. For `O=S1(=O)N=C(NC2CC2)Nc2c(-c3cccc(F)c3Cl)cccc21` [Example 159, 5-(2-chloro-3-fluorophenyl)-3-(cyclopropylamino)-4H-benzo[e][1,2,4]thiadiazine 1,1-dioxide], the EC50 was 53.6 nM. Work on `O=S1(=O)N=C(NCCOCC(F)F)Nc2c(-c3cccc(F)c3Cl)cccc21` [Example 160, 5-(2-chloro-3-fluorophenyl)-3-((2-(2,2-difluoroethoxy)ethyl)amino)-4H-benzo[e][1,2,4]thiadiazine 1,1-dioxide] yielded an EC50 of 93.3 nM. Molecule `N#Cc1c(F)cccc1-c1cccc2c1NC(NCc1ncco1)=NS2(=O)=O` [Example 161, 2-fluoro-6-(3-((oxazol-2-ylmethyl)amino)-1,1-dioxido-4H-benzo[e][1,2,4]thiadiazin-5-yl)benzonitrile] has an EC50 of 61.5 nM. For `CCc1ccccc1-c1cccc2c1NC(NCCOC)=NS2(=O)=O` [Example 163, 5-(2-ethylphenyl)-3-((2-methoxyethyl)amino)-4H-benzo[e][1,2,4]thiadiazine 1,1-dioxide], the EC50 was 180 nM. Molecule `O=S1(=O)N=C(NCc2ccco2)Nc2c(-c3cc(F)cc(F)c3)cccc21` [Example 164, 5-(3,5-difluorophenyl)-3-((furan-2-ylmethyl)amino)-4H-benzo[e][1,2,4]thiadiazine 1,1-dioxide] has an EC50 of 225 nM. Work on `CCNC1=NS(=O)(=O)c2cccc(-c3cccc(F)c3F)c2N1` [Example 165, 5-(2,3-difluorophenyl)-3-(ethylamino)-4H-benzo[e][1,2,4]thiadiazine 1,1-dioxide] yielded an EC50 of 288 nM. Molecule `COC(C)CNC1=NS(=O)(=O)c2cccc(-c3cc(F)cc(F)c3)c2N1` (centres unmarked) [Example 166, 5-(3,5-difluorophenyl)-3-((2-methoxypropyl)amino)-4H-benzo[e][1,2,4]thiadiazine 1,1-dioxide] has an EC50 of 340 nM. Molecule `COC1CC(NC2=NS(=O)(=O)c3cccc(-c4cccc(F)c4Cl)c3N2)C1` (centres unmarked) [Example 167, 5-(2-chloro-3-fluorophenyl)-3-((3-methoxycyclobutyl)amino)-4H-benzo[e][1,2,4]thiadiazine 1,1-dioxide] has an EC50 of 394 nM.

From patent US12247015B2, “3-amino-4H-benzo[e][1,2,4]thiadiazine 1,1-dioxide derivatives as inhibitors of MRGX2” (Solent Therapeutics, LLC, priority 2019, dated 2025)
